Measured values as given in PubChem BioAssay AID1259407 (Chemical Carcinogenesis Research Information System (CCRIS), 2018).
Activity calls are given as the source filed them. The rule behind the calls is not given here.

Test system: CCRIS mutagenicity, Ames/micronucleus/aberration tests
Assay: CCRIS mutagenicity studies
[1] = Test System: AMES SALMONELLA TYPHIMURIUM, Strain/Indicator: TA98, Metabolic Activation: NONE, Method: STANDARD PLATE
[2] = Test System: AMES SALMONELLA TYPHIMURIUM, Strain/Indicator: TA98, Metabolic Activation: RAT, LIVER, S-9, AROCLOR 1254, Method: STANDARD PLATE
[3] = Test System: AMES SALMONELLA TYPHIMURIUM, Strain/Indicator: TA100, Metabolic Activation: NONE, Method: STANDARD PLATE
[4] = Test System: AMES SALMONELLA TYPHIMURIUM, Strain/Indicator: TA100, Metabolic Activation: RAT, LIVER, S-9, AROCLOR 1254, Method: STANDARD PLATE
[5] = Test System: AMES SALMONELLA TYPHIMURIUM, Strain/Indicator: TA1537, Metabolic Activation: NONE, Method: STANDARD PLATE
[6] = Test System: AMES SALMONELLA TYPHIMURIUM, Strain/Indicator: TA1537, Metabolic Activation: RAT, LIVER, S-9, AROCLOR 1254, Method: STANDARD PLATE

Question: How did the mutagenic call (Test System: UDS RAT UROTHELIAL CELLS, Strain/Indicator: THY INCORP, Metabolic Activation: NONE) turn out when CCCCN(N=O)C(CCC)OC(C)=O (centres undefined) was run?
Answer: active; positive

Question: For NC(=O)c1cccnc1, which mutagenic call (Test System: AMES SALMONELLA TYPHIMURIUM, Strain/Indicator: TA97A, Metabolic Activation: NONE, Method: PREINCUBATION) is on record?
Answer: inactive; negative

Question: And the mutagenic call (Test System: AMES SALMONELLA TYPHIMURIUM, Strain/Indicator: TA97A, Metabolic Activation: RAT, LIVER, S-9, AROCLOR 1254, Method: PREINCUBATION)?
Answer: inactive; negative

Question: What about the mutagenic call (Test System: AMES SALMONELLA TYPHIMURIUM, Strain/Indicator: TA102, Metabolic Activation: NONE, Method: PREINCUBATION) of the same molecule?
Answer: inactive; negative

Question: What about the mutagenic call (Test System: AMES SALMONELLA TYPHIMURIUM, Strain/Indicator: TA102, Metabolic Activation: RAT, LIVER, S-9, AROCLOR 1254, Method: PREINCUBATION) of the same molecule?
Answer: inactive; negative

Question: What does the source list for ClNc1nc(NCl)nc(NCl)n1?
Answer: mutagenic call (Test System: AMES SALMONELLA TYPHIMURIUM, Strain/Indicator: TA98, Metabolic Activation: HAMSTER, LIVER, S-9, AROCLOR 1254, Method: STANDARD PLATE): inactive; negative; mutagenic call [1]: inactive; negative; mutagenic call [2]: inactive; negative; mutagenic call (Test System: AMES SALMONELLA TYPHIMURIUM, Strain/Indicator: TA100, Metabolic Activation: HAMSTER, LIVER, S-9, AROCLOR 1254, Method: STANDARD PLATE): inactive; negative; mutagenic call [3]: inactive; negative; mutagenic call [4]: inactive; negative; mutagenic call (Test System: AMES SALMONELLA TYPHIMURIUM, Strain/Indicator: TA1535, Metabolic Activation: HAMSTER, LIVER, S-9, AROCLOR 1254, Method: STANDARD PLATE): inactive; negative; mutagenic call (Test System: AMES SALMONELLA TYPHIMURIUM, Strain/Indicator: TA1535, Metabolic Activation: NONE, Method: STANDARD PLATE): inactive; negative; mutagenic call (Test System: AMES SALMONELLA TYPHIMURIUM, Strain/Indicator: TA1535, Metabolic Activation: RAT, LIVER, S-9, AROCLOR 1254, Method: STANDARD PLATE): inactive; negative; mutagenic call (Test System: AMES SALMONELLA TYPHIMURIUM, Strain/Indicator: TA1537, Metabolic Activation: HAMSTER, LIVER, S-9, AROCLOR 1254, Method: STANDARD PLATE): inactive; negative; mutagenic call [5]: inactive; negative; mutagenic call [6]: inactive; negative; mutagenic call (Test System: AMES SALMONELLA TYPHIMURIUM, Strain/Indicator: TA1538, Metabolic Activation: HAMSTER, LIVER, S-9, AROCLOR 1254, Method: STANDARD PLATE): inactive; negative; mutagenic call (Test System: AMES SALMONELLA TYPHIMURIUM, Strain/Indicator: TA1538, Metabolic Activation: NONE, Method: STANDARD PLATE): inactive; negative; mutagenic call (Test System: AMES SALMONELLA TYPHIMURIUM, Strain/Indicator: TA1538, Metabolic Activation: RAT, LIVER, S-9, AROCLOR 1254, Method: STANDARD PLATE): inactive; negative; mutagenic call (Test System: MOUSE LYMPHOMA, Strain/Indicator: L5178Y (TK+/TK-), Metabolic Activation: NONE, Method: SUSPENSION/PLATE): inactive; negative. reevaluation of results: negative; mutagenic call (Test System: Mouse lymphoma, Strain/Indicator: L5178Y (tk+/tk-), Metabolic Activation: Rat, Liver, S-9, Aroclor 1254, Method: Suspension/plate): active; positive

Question: How did the mutagenic call [1] turn out when NNC(=O)CNc1ccc2ccccc2c1 was run?
Answer: inactive; negative

Question: What about the mutagenic call [2] of the same molecule?
Answer: inactive; negative

Question: What about the mutagenic call [3] of the same molecule?
Answer: inactive; negative

Question: What about the mutagenic call [4] of the same molecule?
Answer: inactive; negative

Question: What about the mutagenic call [5] of the same molecule?
Answer: inactive; negative

Question: What about the mutagenic call [6] of the same molecule?
Answer: inactive; negative

Question: How did the mutagenic call (Test System: AMES SALMONELLA TYPHIMURIUM, Strain/Indicator: TA98, Metabolic Activation: NONE, Method: PREINCUBATION) turn out when Cc1c(N=[N+]([O-])c2cccc([N+](=O)[O-])c2C)cccc1[N+](=O)[O-] was run?
Answer: inactive; negative

Question: What about the mutagenic call (Test System: AMES SALMONELLA TYPHIMURIUM, Strain/Indicator: TA98, Metabolic Activation: RAT, LIVER, S-9, PHENOBARBITAL AND 5,6-BENZOFLAVONE, Method: PREINCUBATION) of the same molecule?
Answer: inactive; negative

Question: And the mutagenic call (Test System: AMES SALMONELLA TYPHIMURIUM, Strain/Indicator: TA100, Metabolic Activation: NONE, Method: PREINCUBATION)?
Answer: inactive; negative

Question: And the mutagenic call (Test System: AMES SALMONELLA TYPHIMURIUM, Strain/Indicator: TA100, Metabolic Activation: RAT, LIVER, S-9, PHENOBARBITAL AND 5,6-BENZOFLAVONE, Method: PREINCUBATION)?
Answer: inactive; negative

Question: Which results are given for N[C@@H](CCC(=O)N[C@@H](CS/C(Cl)=C\Cl)C(=O)NCC(=O)O)C(=O)O?
Answer: mutagenic call (Test System: AMES SALMONELLA TYPHIMURIUM, Strain/Indicator: TA2638, Metabolic Activation: NONE, Method: PREINCUBATION): active; positive; mutagenic call (Test System: AMES SALMONELLA TYPHIMURIUM, Strain/Indicator: TA2638, Metabolic Activation: RAT, KIDNEY, CYTOSOL, Method: PREINCUBATION): active; positive; mutagenic call (Test System: AMES SALMONELLA TYPHIMURIUM, Strain/Indicator: TA2638, Metabolic Activation: RAT, KIDNEY, MICROSOMES, Method: PREINCUBATION): active; positive; mutagenic call (Test System: AMES SALMONELLA TYPHIMURIUM, Strain/Indicator: TA2638, Metabolic Activation: RAT, KIDNEY, MITOCHONDRIA, Method: PREINCUBATION): active; positive

Question: COC1=C[C@@H]2[C@@H]3Cc4ccc(OC)c(O)c4[C@]2(CCN3C)CC1=O was tested. Which mutagenic call (Test System: AMES SALMONELLA TYPHIMURIUM, Strain/Indicator: TA98, Metabolic Activation: RAT, LIVER, S-9, PHENOBARBITAL AND BETA-NAPHTHOFLAVONE, Method: PREINCUBATION) did it give?
Answer: inactive; negative

Question: And the mutagenic call (Test System: AMES SALMONELLA TYPHIMURIUM, Strain/Indicator: TA100, Metabolic Activation: RAT, LIVER, S-9, PHENOBARBITAL AND BETA-NAPHTHOFLAVONE, Method: PREINCUBATION)?
Answer: inactive; negative

Question: What does the source list for Oc1ccc(Oc2c(Cl)cc(Cl)cc2Cl)cc1?
Answer: mutagenic call (Test System: AMES SALMONELLA TYPHIMURIUM, Strain/Indicator: TA98, Metabolic Activation: S-9, Method: STANDARD PLATE): inactive; negative; mutagenic call (Test System: AMES SALMONELLA TYPHIMURIUM, Strain/Indicator: TA100, Metabolic Activation: S-9, Method: STANDARD PLATE): inactive; negative; mutagenic call (Test System: AMES SALMONELLA TYPHIMURIUM, Strain/Indicator: YG1021, Metabolic Activation: S-9, Method: STANDARD PLATE): inactive; negative; mutagenic call (Test System: AMES SALMONELLA TYPHIMURIUM, Strain/Indicator: YG1024, Metabolic Activation: S-9, Method: STANDARD PLATE): inactive; negative; mutagenic call (Test System: AMES SALMONELLA TYPHIMURIUM, Strain/Indicator: YG1026, Metabolic Activation: S-9, Method: STANDARD PLATE): inactive; negative; mutagenic call (Test System: AMES SALMONELLA TYPHIMURIUM, Strain/Indicator: YG1029, Metabolic Activation: S-9, Method: STANDARD PLATE): inactive; negative
